Ki data for 38 compounds are collected here from patent US11673892B2, “Bicyclic compounds for use as RIP1 kinase inhibitors” (Genentech, Inc., priority 2017, dated 2023).

The target in the experiment is T1, human RIP1 kinase domain (2-375) (Homo sapiens, UniProt Q13546).
T1 construct: Purified human RIP1 kinase domain (2-375) (50 nM); made in house; host or cells: baculovirus-infected insect cells
T1 sequence (Q13546 2-375): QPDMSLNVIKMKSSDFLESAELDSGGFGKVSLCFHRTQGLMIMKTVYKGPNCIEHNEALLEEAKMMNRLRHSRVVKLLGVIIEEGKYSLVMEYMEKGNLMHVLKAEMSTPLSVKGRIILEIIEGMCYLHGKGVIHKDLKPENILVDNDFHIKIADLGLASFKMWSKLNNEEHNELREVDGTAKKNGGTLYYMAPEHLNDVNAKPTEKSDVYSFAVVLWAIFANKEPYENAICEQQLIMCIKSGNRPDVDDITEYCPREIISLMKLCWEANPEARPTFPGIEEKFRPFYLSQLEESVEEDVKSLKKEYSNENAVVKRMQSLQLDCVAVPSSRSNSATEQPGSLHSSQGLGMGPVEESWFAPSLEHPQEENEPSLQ
Kind of experiment: RIP1 kinase inhibition biochemical assay (Transcreener ADP, fluorescence polarization). Conditions: Ki app (Morrison tight-binding fit); 50 nM enzyme, 50 uM ATP, 2 hours incubation. The procedure: RIP1 Kinase Inhibition Assays (Biochemical Assay)
The compounds of the present invention were tested for their capacity to inhibit RIP1K activity as described below.
The ability of the receptor interacting protein kinase (RIPK1) to catalyze the hydrolysis of adenosine-5′-triphosphate (ATP) is monitored using the Transcreener ADP (adenosine-5′-diphosphate) assay (BellBrook Labs). Purified human RIP1 kinase domain (2-375) (50 nM) derived from a baculovirus-infected insect cell expression system is incubated with test compounds for 2 hours in 50 mM Hepes buffer (pH 7.5) containing 30 mM MgCl2, 1 mM dithiothreitol, 50 uM ATP, 0.002% Brij-35, and 0.5% dimethyl sulfoxide (DMSO). Reactions are quenched by the addition of 1× Bell Brooks Stop buffer B (20 mM Hepes (ph7.5), 40 mM ethylenediaminetetraacetic acid and 0.02% Brij-35) containing an additional 12 mM EDTA and 55 ug/mL ADP2 antibody and 4 nM ADP-AlexaFluor® 633 tracer. The tracer bound to the antibody is displaced by the ADP generated during the RIP1K reaction, which causes a decrease in fluorescence polarization that is measured by laser excitation at 633 nm with a FP microplate reader M1000. Fractional activity was plotted against test article concentration. Using Genedata Screener software (Genedata; Basel, Switzerland), the data were fit to the tight-binding apparent inhibition constant (Ki^app) Morrison equation [Williams, J. W. and Morrison, J. F. (1979) The kinetics of reversible tight-binding inhibition. Methods Enzymol 63: 437-67]. The following equation was used to calculate fractional activity and Ki^app:
[formula] where [E]T and [I]T are the total concentrations of active enzyme and test article, respectively.
Exemplary compounds of the present invention are provided in Table 1 along with their physiochemical characterization and in vitro RIP1 kinase inhibitory activity data. “Method” in the first column of each table refers to the synthetic method(s) used to prepare each compound as shown in the Examples above. In certain examples, chiral column retention times (min) are provided for certain stereoisomers. Unless otherwise specified, the stereochemistry shown in each structure represents relative configuration of a single stereoisomer, and absolute configuration (i.e., “R” and/or “S”) is arbitrarily assigned. In some embodiments, where the Method is described to include the separation of stereoisomers, a single stereoisomer of a compound of Table 1 is provided.
A general note: In fluorescence polarisation assays a small probe gives low polarisation when free and higher when bound to something large.

For `F[C@H]1C[C@@H](c2ccccc2)n2nc(-n3ncc4ncccc43)nc21` (single isomer, unassigned) [Example 84], the Ki was 0.029 µM.
As for `F[C@H]1C[C@@H](c2ccccc2)n2nc(-n3ncc4cnccc43)nc21` (single isomer, unassigned) [Example 89], the figure is 0.81 µM.
Compound `Cc1cc(C#N)nn1-c1nc2n(n1)[C@H](c1ccccc1)C[C@@H]2F` (single isomer, unassigned) [Example 91] registered a Ki of 0.013 µM.
As to `Cc1nn(-c2nc3n(n2)[C@H](c2ccccc2)C[C@@H]3F)cc1C#N` (single isomer, unassigned) [Example 92], the Ki turned out to be 0.25 µM.
In the case of `Cc1c(C#N)cnn1-c1nc2n(n1)[C@H](c1ccccc1)C[C@@H]2F` (single isomer, unassigned) [Example 93], the Ki stood at 0.005 µM.
To `C[C@H]1C[C@@H]1c1nc2n(n1)[C@H](c1ccccc1)C[C@@H]2F` (single isomer, unassigned) [Example 95] belongs 0.039 µM.
To `C[C@@H]1C[C@H]1c1nc2n(n1)[C@H](c1ccccc1)C[C@@H]2F` (single isomer, unassigned) [Example 96] belongs 0.063 µM; to `C=C(CC)c1nc2n(n1)[C@H](c1ccccc1)C[C@@H]2F` (single isomer, unassigned) [Example 97], 0.2 µM.
To `Fc1ccccc1[C@@H]1CCc2nc(CC3CC3)nn21` (single isomer, unassigned) [Example 98] belongs 0.19 µM; to `F[C@H]1C[C@@H](c2ccccc2)n2nc(-c3cnoc3)nc21` (single isomer, unassigned) [Example 99], 0.14 µM; to `N#CC1CN(c2nc3n(n2)[C@H](c2ccccc2)C[C@@H]3F)C1` (single isomer, unassigned) [Example 100], 0.25 µM.
For `Fc1ccccc1[C@@H]1C[C@H](F)c2nc(C(F)(F)C3CC3)nn21` (single isomer, unassigned) [Example 104], the Ki was determined as 0.004 µM.
Compound `CC1([C@@H](O)c2nc3n(n2)[C@H](c2ccccc2)C[C@@H]3F)CC1` (single isomer, unassigned) [Example 105] gave a Ki of 0.35 µM.
As for `F[C@H]1C[C@@H](c2ccccc2)n2nc([C@H](F)C3CC3)nc21` (single isomer, unassigned) [Example 107], the figure is 0.0035 µM.
As for `F[C@H](c1nc2n(n1)[C@H](c1ccccc1)C[C@@H]2F)C1CC1` (single isomer, unassigned) [Example 109], the figure is 0.012 µM.
As to `[2H][C@](F)(c1nc2n(n1)[C@H](c1ccccc1)C[C@@H]2F)C1CC1` (single isomer, unassigned) [Example 110], the Ki worked out at 0.0031 µM.
As for `[2H][C@@](F)(c1nc2n(n1)[C@H](c1ccccc1)C[C@@H]2F)C1CC1` (single isomer, unassigned) [Example 111], the figure is 0.0049 µM.
As for `O[C@@H](c1cc2n(n1)[C@@H](c1ccccc1)C[C@H]2F)C1CC1` (single isomer, unassigned) [Example 114], the figure is 0.1 µM; as for `O[C@H](c1cc2n(n1)[C@@H](c1ccccc1)C[C@H]2F)C1CC1` (single isomer, unassigned) [Example 115], 0.081 µM.
To `[2H]C([2H])(c1nc2n(n1)[C@H](c1ccccc1)C[C@@H]2F)C1CC1` (single isomer, unassigned) [Example 116] belongs 0.0073 µM; to `FC(F)c1nc2n(n1)[C@@H](c1ccccc1)C[C@H]2F` (single isomer, unassigned) [Example 118], 0.18 µM.
The compound `F[C@H]1C[C@@H](c2ccccc2)n2nc(CC3CCC3)nc21` (stereo in doubt) [Example 94, (5S,7S)-2-(cyclobutylmethyl)-7-fluoro-5-phenyl-6,7-dihydro-5H-pyrrolo[1,2-b][1,2,4]triazole] came in with a Ki of 0.016 µM.
To `CCC(O)c1nc2n(n1)[C@H](c1ccccc1)C[C@@H]2F` (some centres unmarked) [Example 1] belongs 0.406 µM; to `CCC(F)c1nc2n(n1)C(c1ccccc1)CC2F` (stereo not drawn) [Example 3, Cis-7-fluor-2-(1-fluoropropyl)-5-phenyl-6,7-dihydro-5H-pyrrolo[1,2-b][1,2,4]triazole], 0.051 µM.
To `OC(c1nc2n(n1)C(c1ccccc1)CC2F)C(F)(F)F` [Example 4, cis-(5S,7S)-2,2,2-trifluoro-1-(7-fluoro-5-phenyl-6,7-dihydro-5H-pyrrolo[1,2-b][1,2,4]triazol-2-yl)ethanol] belongs 0.47 µM; to `CCC(C)(F)c1nc2n(n1)C(c1ccccc1)CC2F` [Example 6, Cis-(5S,7S)-2-(1-fluoro-1-methyl-propyl)-7-fluoro-5-phenyl-6,7-dihydro-5H-pyrrolo[1,2-b][1,2,4]triazole], 0.069 µM; to `F[C@H]1C[C@@H](c2ccccc2)n2nc(CC3CC3(F)F)nc21` (stereo partly drawn) [Example 20, (5S,7S)-2-[(2,2-difluorocyclopropyl)methyl]-7-fluoro-5-phenyl-6,7-dihydro-5H-pyrrolo[1,2-b][1,2,4]triazole], 0.004 µM.
To `F[C@H]1C[C@@H](c2ccccc2)n2nc(C3CC3(F)F)nc21` (stereo partly drawn) [Example 28, (5S,7S)-2-(2,2-difluorocyclopropyl)-7-fluoro-5-phenyl-6,7-dihydro-5H-pyrrolo[1,2-b][1,2,4]triazole] belongs 0.07 µM; to `CC1(C)CC1c1nc2n(n1)[C@H](c1ccccc1)C[C@@H]2F` (stereo partly drawn) [Example 30, (5S,7S)-2-(2,2-dimethylcyclopropyl)-7-fluoro-5-phenyl-6,7-dihydro-H-pyrrolo[1,2-b][1,2,4]triazole], 0.081 µM; to `F[C@H]1C[C@@H](c2ccccc2)n2nc(C3CC3C(F)(F)F)nc21` (stereo partly drawn) [Example 33, (5S,7S)-7-fluoro-5-phenyl-2-(2-(trifluoromethyl)cyclopropyl)-6,7-dihydro-5H-pyrrolo[1,2-b][1,2,4]triazole], 0.034 µM.
`CCc1nc2n(n1)[C@H](c1ccccc1)C[C@@H]2F` [Example 36, (5S,7S)-2-ethyl-7-fluoro-5-phenyl-6,7-dihydro-5H-pyrrolo[1,2-b][1,2,4]triazole] showed a Ki of 0.049 µM.
As for `CC(C)OCc1nc2n(n1)[C@H](c1ccccc1)C[C@@H]2F` [Example 37, (5S,7S)-7-fluoro-2-(isopropoxymethyl)-5-phenyl-6,7-dihydro-5H-pyrrolo[1,2-b][1,2,4]triazole], the figure is 3 µM.
In turn, `O=Cc1cnn(-c2nc3n(n2)[C@H](c2ccccc2)C[C@@H]3F)c1` [Example 40, 1-[(5S,7S)-7-fluoro-5-phenyl-6,7-dihydro-5H-pyrrolo[1,2-b][1,2,4]triazol-2-yl]pyrazole-4-carbaldehyde] registered a Ki of 0.052 µM.
As for `F[C@H]1C[C@@H](c2ccccc2)n2nc(C(F)(F)C34CC(C3)C4)nc21` [Example 42, (5S,7S)-2-[1-bicyclo[1.1.1]pentanyl(difluoro)methyl]-7-fluoro-5-phenyl-6,7-dihydro-5H-pyrrolo[1,2-b][1,2,4]triazole], the figure is 0.006 µM; as for `F[C@H]1C[C@@H](c2ccccc2)n2nc(C#CC3CC3)nc21` [Example 43, (5S,7S)-2-(2-cyclopropylethynyl)-7-fluoro-5-phenyl-6,7-dihydro-5H-pyrrolo[1,2-b][1,2,4]triazole], 0.45 µM.
As for `CC#Cc1nc2n(n1)[C@H](c1ccccc1)C[C@@H]2F` [Example 44, (5S,7S)-7-fluoro-5-phenyl-2-prop-1-ynyl-6,7-dihydro-5H-pyrrolo[1,2-b][1,2,4]triazole], the figure is 0.89 µM; as for `N#CC(F)c1nc2n(n1)[C@H](c1ccccc1)C[C@@H]2F` (stereo partly drawn) [Example 48, 2-fluoro-2-[(5S,7S)-7-fluoro-5-phenyl-6,7-dihydro-5H-pyrrolo[1,2-b][1,2,4]triazol-2-yl]acetonitrile], 0.91 µM.
Compound `F[C@H]1C[C@@H](c2ccccc2)n2nc(-n3cc(Cl)cn3)nc21` [Example 60, (5S,7S)-2-(4-chloropyrazol-1-yl)-7-fluoro-phenyl-6,7-dihydro-5H-pyrrolo[1,2-b][1,2,4]triazole] showed a Ki of 0.0045 µM.
